Laboratory results published in publication PMC12281142, “A potent phenylalkylamine disrupts mycobacterial membrane bioenergetics and augments bactericidal activity of bedaquiline” (iScience, 2025).
≈ marks a conversion by molar mass, not a printed value. Where “and” joins values, the source holds several entries; their conditions need not be identical. Identical values can stand only once. Like-named read-outs stand apart in the source and are kept apart here.

How the values were obtained:
[1] = system: cat papillary muscle; conditions: cited from earlier work
[2] = system: nonreplicating M. bovis BCG; assay type: cell-based, Mycobacterium bovis BCG; conditions: 4x MIC90BCG, 5 days, Wayne model
[3] = system: Mtb H37Rv; test: MIC by broth microdilution against Mtb H37Rv; assay type: cell-based, Mycobacterium tuberculosis; conditions: Mycobacterium tuberculosis, H37RV
[4] = system: M. bovis BCG; assay type: cell-based, Mycobacterium bovis BCG; conditions: 2x MIC90BCG, 6 h time point, cultures still viable
[5] = system: Mab complex; test: MIC against Mab complex (summary over the 3 subspecies); assay type: cell-based, Mycobacterium abscessus; conditions: Mycobacteroides abscessus; range over subspecies
[6] = system: HepG2; test: Cytotoxicity in HepG2 cells; assay type: cell-based, human; conditions: Homo sapiens, HepG2; 48 h, growth suppressed by 50% vs untreated
Experimental: (§1) To each well in a 96-well plate, 50,000 cells in 100 μL media were seeded. Vero E6 and HepG2 cells were incubated overnight in DMEM for cell adherence at 37°C and 5% CO2. The media was removed from the wells and 100 μL solution made up of fresh DMEM media (99 μL) and the test compound (1 μL from a DMSO stock solution that was […] more concentrated than the final concentration in the well) was then added to each well. DMSO content of each well was consistently kept at 0.5 %v/v. Treated plates were incubated for 48 h (5% CO2, 37°C), after which 10 μL of Celltitre 96 Aqueous One Solution was added to each well, without removal of media, and incubated for a further 3 h. Subsequently, absorbance readings were taken at 490 nm on a Tecan GENios Microplate Reader.
(§2) Cell viability was determined from the expression: Cellviability(%)={[Absorbance(cells+cpd)−Absorbance(cpd)]/[Absorbance(cells+vc)−Absorbance(vc)]}×100% where Absorbance (cells + cpd) = absorbance of wells containing cells and test compound in vehicle (media +0.5% DMSO); Absorbance (cpd) = absorbance of wells containing test compound in vehicle without cells (compound control); Absorbance (cells + vc) = absorbance of wells containing cells in vehicle (vc) only (untreated cells); Absorbance (vc) = absorbance of wells containing vehicle without cells (vehicle control). The percentage viability readings were plotted against log(concentration) on GraphPad Prism (Version 7.0, San Diego, CA) to give a sigmoidal curve, from which IC50, defined as the concentration of the compound that reduced cell viability by 50%, was obtained. At least 3 separate determinations were carried out.

[7] = system: Mab massiliense CCUG 48898-T; test: MIC against Mab massiliense CCUG 48898-T; assay type: cell-based, Mycobacterium abscessus subsp. massiliense; conditions: Mycobacteroides abscessus; for MIC50: CCUG48898, 72 h, 3 days
[8] = system: Mab abscessus ATCC 19977; test: MIC against Mab abscessus ATCC 19977; assay type: cell-based, Mycobacterium abscessus subsp. abscessus; conditions: Mycobacteroides abscessus; for MIC50: ATCC19977, 72 h, 3 days
[9] = system: M. bovis BCG; test: microbe, parasite or virus in culture; assay type: cell-based, Mycobacterium bovis BCG; conditions: Mycobacterium tuberculosis variant bovis BCG, BCG
[10] = system: Vero E6; test: Cytotoxicity in Vero E6 cells; assay type: cell-based, African green monkey; conditions: Chlorocebus sabaeus, Vero C1008, 48 h, growth suppressed by 50% vs untreated
Experimental: as §1, §2

[11] = system: Mab bolletii CCUG 50184-T; test: MIC against Mab bolletii CCUG 50184-T; assay type: cell-based, Mycobacterium abscessus subsp. bolletii; conditions: Mycobacteroides abscessus; for MIC50: CCUG50184, 72 h, 3 days
[12] = system: mycobacterial growth; conditions: cited from earlier work
[13] = system: M. bovis BCG; assay type: cell-based, Mycobacterium bovis BCG; conditions: 2XMIC90BCG (1.1 mM, 500 μg/mL)
[14] = 7H9 medium (first value of cell)
[15] = CA-MHB medium (second value of cell)

COc1ccc(CCN(C)CCCC(C#N)(c2ccc(OC)c(OC)c2)C(C)C)cc1OC (stereo not drawn) [VP, verapamil, reference compound]
ED50 (concentration to reduce maximal contractility of the papillary muscle by 50%) [1]: 3.5 µM
kill of hypoxic M. bovis BCG [2]: 10^2 fold
MIC50 ([3]; 120 h, read-out: MIC50 Mtb H37Rv): 241 µM
MIC90 ([3]; 120 h, second value of cell MIC50/MIC90, incubation 5 days, read-out: MIC90 Mtb H37Rv): 540 µM
MIC50 ([3]; read-out: MIC50 Mtb): 110 µg/mL
MIC90 ([3]; read-out: MIC90 Mtb): 246 µg/mL
membrane depolarization [4]: depolarization was evident
MIC50 [5]: 500 to 564 µg/mL (≈ 1100 to 1240 µM)
IC50 [6]: 504 µM
MIC90 ([7]; CCUG48898, 7H9 broth (first value)): 2250 µM (≈ 1020 µg/mL)
MIC50 [7, 14]: 1100 µM (≈ 500 µg/mL)
MIC50 [7, 15]: 1150 µM (≈ 523 µg/mL)
MIC90 ([7]; CCUG48898, camH broth (second value)): > 2500 µM
MIC90 ([8]; ATCC19977, 7H9 broth (first value), read-out: MIC90 Mab abscessus ATCC 19977): 2400 µM (≈ 1090 µg/mL)
MIC50 [8, 14]: 1290 µM (≈ 586 µg/mL)
MIC50 [8, 15]: 1200 µM (≈ 546 µg/mL)
MIC90 ([8]; ATCC19977, Mab abscessus, read-out: MIC90 abscessus): 2400 µM and 1100 µg/mL
MIC90 ([8]; ATCC19977, camH broth (second value), read-out: MIC90 Mab abscessus ATCC 19977): > 2500 µM
MIC50 ([9]; 120 h, read-out: MIC50 BCG With Glycerol, 7H9 broth with glycerol, 5 days): 210 µM
MIC50 ([9]; 120 h, read-out: MIC50 BCG Without Glycerol, 7H9 broth without glycerol, 5 days): 450 µM
MIC50 ([9]; M. bovis BCG, broth dilution, growth reduced by 50% vs untreated): 210 µM
MIC90 ([9]; M. bovis BCG, broth dilution, growth reduced by 90% vs untreated): 550 µM
MIC50 ([9]; read-out: MIC50 BCG, 7H9 with glycerol): 96 µg/mL
MIC50 ([9]; read-out: MIC50 BCG, 7H9 without glycerol): 205 µg/mL
MIC90 ([9]; read-out: MIC90 (Table S1), M. bovis BCG, broth dilution): 550 µM
MIC90 ([9]; read-out: MIC90 BCG, M. bovis BCG): 250 µg/mL
IC50 [10]: 543 µM
MIC90 ([11]; CCUG50184, 7H9 broth (first value)): 2200 µM (≈ 1000 µg/mL)
MIC50 [11, 14]: 1450 µM (≈ 659 µg/mL)
MIC50 [11, 15]: 1250 µM (≈ 568 µg/mL)
MIC90 ([11]; CCUG50184, camH broth (second value)): > 2500 µM
concentration to inhibit mycobacterial growth [12]: ~500 μM and ~227 μg/mL
time to reduce the CFU count to the detection limit [13]: 14 days
